Reference: article PMC9653409, “Generative deep learning enables the discovery of a potent and selective RIPK1 inhibitor” (Nature Communications, 2022)

Key:
Experiment in all cases: Kinase inhibitory activity profiling of RI-962@10 µM (406 kinases, Eurofins)
Format in all cases: biochemical
[1] = molecular target: panel of human kinases (kinase named in endpoint) (Homo sapiens, UniProt Q8IWQ3); conditions: 10 µM; read-out: Activity (%), BrSK2(h)
How it was run: (§1)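 Radiometric filter-binding kinase assays: enzyme preincubated 15 min with compound in 8 mM MOPS pH 7.0, 0.2 mM EDTA, 250 μM peptide substrate, 10 mM magnesium acetate, 10 μM [γ-33P]-ATP. Reaction started with Mg/ATP, run 40 min at room temperature, stopped with phosphoric acid; 33P incorporation read by scintillation counting. Other kinases by similar protocols.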

[2] = molecular target: panel of human kinases (kinase named in endpoint) (Homo sapiens, UniProt O94921); conditions: 10 µM; read-out: Activity (%), CDK14/cyclinY(h)
How it was run: as §1

[3] = molecular target: panel of human kinases (kinase named in endpoint) (Homo sapiens, UniProt Q15119); conditions: 10 µM; read-out: Activity (%), PDHK2(h)
How it was run: as §1

[4] = molecular target: panel of human kinases (kinase named in endpoint) (Homo sapiens, UniProt P42336, E542K); conditions: 10 µM; read-out: Activity (%), PI3(p110a(E542K)/p85a)
How it was run: as §1

[5] = molecular target: panel of human kinases (kinase named in endpoint) (Homo sapiens, UniProt P00533); conditions: 10 µM; read-out: Activity (%), EGFR(h)
How it was run: as §1

[6] = molecular target: panel of human kinases (kinase named in endpoint) (Homo sapiens, UniProt Q9NY57); conditions: 10 µM; read-out: Activity (%), STK32B(h)
How it was run: as §1

[7] = molecular target: panel of human kinases (kinase named in endpoint) (Homo sapiens, UniProt O00311); conditions: 10 µM; read-out: Activity (%), Cdc7/cyclinB1(h)
How it was run: as §1

[8] = molecular target: panel of human kinases (kinase named in endpoint) (Homo sapiens, UniProt Q13153); conditions: 10 µM; read-out: Activity (%), PAK1(h)
How it was run: as §1

[9] = molecular target: panel of human kinases (kinase named in endpoint) (Homo sapiens, UniProt P17612); conditions: 10 µM; read-out: Activity (%), PKA(h)
How it was run: as §1

[10] = molecular target: panel of human kinases (kinase named in endpoint) (Homo sapiens, UniProt P00533, L858R); conditions: 10 µM; read-out: Activity (%), EGFR(L858R)(h)
How it was run: as §1

[11] = molecular target: panel of human kinases (kinase named in endpoint) (Homo sapiens, UniProt Q8IY84); conditions: 10 µM; read-out: Activity (%), NIM1(h)
How it was run: as §1

[12] = molecular target: panel of human kinases (kinase named in endpoint) (Homo sapiens, UniProt P19784); conditions: 10 µM; read-out: Activity (%), CK2α2(h)
How it was run: as §1

[13] = molecular target: panel of human kinases (kinase named in endpoint) (Homo sapiens, UniProt O15111); conditions: 10 µM; read-out: Activity (%), IKKα(h)
How it was run: as §1

[14] = molecular target: panel of human kinases (kinase named in endpoint) (Homo sapiens, UniProt Q13555); conditions: 10 µM; read-out: Activity (%), CaMKIIγ(h)
How it was run: as §1

[15] = molecular target: panel of human kinases (kinase named in endpoint) (Homo sapiens, UniProt Q5S007); conditions: 10 µM; read-out: Activity (%), LRRK2(h)
How it was run: as §1

[16] = molecular target: panel of human kinases (kinase named in endpoint) (Homo sapiens, UniProt P07332); conditions: 10 µM; read-out: Activity (%), Fes(h)
How it was run: as §1

[17] = molecular target: panel of human kinases (kinase named in endpoint) (Homo sapiens, UniProt O00418); conditions: 10 µM; read-out: Activity (%), eEF-2K(h)
How it was run: as §1

[18] = molecular target: panel of human kinases (kinase named in endpoint) (Homo sapiens, UniProt P53355); conditions: 10 µM; read-out: Activity (%), DAPK1(h)
How it was run: as §1

[19] = molecular target: panel of human kinases (kinase named in endpoint) (Homo sapiens, UniProt Q9NZJ5); conditions: 10 µM; read-out: Activity (%), PEK(h)
How it was run: as §1

[20] = molecular target: panel of human kinases (kinase named in endpoint) (Homo sapiens, UniProt Q9Y3S1); conditions: 10 µM; read-out: Activity (%), WNK2(h)
How it was run: as §1

[21] = molecular target: panel of human kinases (kinase named in endpoint) (Homo sapiens, UniProt Q9UHD2); conditions: 10 µM; read-out: Activity (%), TBK1(h)
How it was run: as §1

[22] = molecular target: panel of human kinases (kinase named in endpoint) (Homo sapiens, UniProt Q9Y243); conditions: 10 µM; read-out: Activity (%), PKBγ(h)
How it was run: as §1

[23] = molecular target: panel of human kinases (kinase named in endpoint) (Homo sapiens, UniProt P00519, T315I); conditions: 10 µM; read-out: Activity (%), Abl(T315I)(h)
How it was run: as §1

[24] = molecular target: panel of human kinases (kinase named in endpoint) (Homo sapiens, UniProt P54753); conditions: 10 µM; read-out: Activity (%), EphB3(h)
How it was run: as §1

[25] = molecular target: panel of human kinases (kinase named in endpoint) (Homo sapiens, UniProt Q9P286); conditions: 10 µM; read-out: Activity (%), PAK5(h)
How it was run: as §1

Sequence of panel of human kinases (kinase named in endpoint) (Homo sapiens, UniProt O94921) (O94921 whole entry): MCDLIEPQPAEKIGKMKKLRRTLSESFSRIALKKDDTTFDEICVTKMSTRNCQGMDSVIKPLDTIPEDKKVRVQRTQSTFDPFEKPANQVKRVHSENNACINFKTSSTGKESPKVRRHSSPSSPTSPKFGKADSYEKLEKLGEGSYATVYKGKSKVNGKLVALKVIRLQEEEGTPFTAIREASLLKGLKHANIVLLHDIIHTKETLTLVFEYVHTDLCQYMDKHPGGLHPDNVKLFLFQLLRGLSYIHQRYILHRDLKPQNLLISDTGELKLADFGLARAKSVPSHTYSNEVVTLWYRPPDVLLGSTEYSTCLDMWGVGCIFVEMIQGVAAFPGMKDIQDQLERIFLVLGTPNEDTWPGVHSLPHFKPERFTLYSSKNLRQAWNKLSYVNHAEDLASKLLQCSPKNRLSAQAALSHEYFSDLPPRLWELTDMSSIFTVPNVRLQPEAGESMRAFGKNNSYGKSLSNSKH
Sequence of panel of human kinases (kinase named in endpoint) (Homo sapiens, UniProt Q9Y243) (Q9Y243 whole entry): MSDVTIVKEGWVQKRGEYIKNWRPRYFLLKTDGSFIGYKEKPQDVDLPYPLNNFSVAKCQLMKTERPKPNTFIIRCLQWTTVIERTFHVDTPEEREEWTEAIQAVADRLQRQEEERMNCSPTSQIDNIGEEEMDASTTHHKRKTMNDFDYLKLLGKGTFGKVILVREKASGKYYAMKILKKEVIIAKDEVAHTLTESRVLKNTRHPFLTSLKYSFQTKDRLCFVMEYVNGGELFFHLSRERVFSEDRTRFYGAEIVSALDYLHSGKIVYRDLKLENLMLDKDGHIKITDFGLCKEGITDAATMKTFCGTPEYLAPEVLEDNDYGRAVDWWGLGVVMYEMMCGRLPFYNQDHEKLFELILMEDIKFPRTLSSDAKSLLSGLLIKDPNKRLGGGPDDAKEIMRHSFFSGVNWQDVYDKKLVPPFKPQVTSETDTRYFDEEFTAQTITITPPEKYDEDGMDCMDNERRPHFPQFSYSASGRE
Sequence of panel of human kinases (kinase named in endpoint) (Homo sapiens, UniProt Q9P286) (Q9P286 whole entry): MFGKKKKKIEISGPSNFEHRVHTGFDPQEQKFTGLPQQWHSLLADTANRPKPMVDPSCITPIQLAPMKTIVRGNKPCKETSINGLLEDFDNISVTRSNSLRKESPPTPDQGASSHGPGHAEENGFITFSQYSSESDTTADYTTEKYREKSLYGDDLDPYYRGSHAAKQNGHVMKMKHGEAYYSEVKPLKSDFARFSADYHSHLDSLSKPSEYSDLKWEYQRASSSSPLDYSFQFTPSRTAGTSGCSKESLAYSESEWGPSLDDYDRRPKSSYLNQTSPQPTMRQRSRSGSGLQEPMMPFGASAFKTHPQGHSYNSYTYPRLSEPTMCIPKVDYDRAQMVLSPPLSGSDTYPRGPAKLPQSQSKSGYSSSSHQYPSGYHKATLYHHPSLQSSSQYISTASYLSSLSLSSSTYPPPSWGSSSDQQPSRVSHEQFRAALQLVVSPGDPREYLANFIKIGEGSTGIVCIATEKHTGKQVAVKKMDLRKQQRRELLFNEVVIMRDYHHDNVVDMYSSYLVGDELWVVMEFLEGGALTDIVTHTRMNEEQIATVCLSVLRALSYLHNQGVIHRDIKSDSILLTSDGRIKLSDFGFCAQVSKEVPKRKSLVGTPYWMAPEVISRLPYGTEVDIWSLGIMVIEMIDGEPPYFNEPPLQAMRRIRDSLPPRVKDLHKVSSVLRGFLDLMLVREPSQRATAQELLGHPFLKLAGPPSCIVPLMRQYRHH
Sequence of panel of human kinases (kinase named in endpoint) (Homo sapiens, UniProt O15111) (O15111 whole entry): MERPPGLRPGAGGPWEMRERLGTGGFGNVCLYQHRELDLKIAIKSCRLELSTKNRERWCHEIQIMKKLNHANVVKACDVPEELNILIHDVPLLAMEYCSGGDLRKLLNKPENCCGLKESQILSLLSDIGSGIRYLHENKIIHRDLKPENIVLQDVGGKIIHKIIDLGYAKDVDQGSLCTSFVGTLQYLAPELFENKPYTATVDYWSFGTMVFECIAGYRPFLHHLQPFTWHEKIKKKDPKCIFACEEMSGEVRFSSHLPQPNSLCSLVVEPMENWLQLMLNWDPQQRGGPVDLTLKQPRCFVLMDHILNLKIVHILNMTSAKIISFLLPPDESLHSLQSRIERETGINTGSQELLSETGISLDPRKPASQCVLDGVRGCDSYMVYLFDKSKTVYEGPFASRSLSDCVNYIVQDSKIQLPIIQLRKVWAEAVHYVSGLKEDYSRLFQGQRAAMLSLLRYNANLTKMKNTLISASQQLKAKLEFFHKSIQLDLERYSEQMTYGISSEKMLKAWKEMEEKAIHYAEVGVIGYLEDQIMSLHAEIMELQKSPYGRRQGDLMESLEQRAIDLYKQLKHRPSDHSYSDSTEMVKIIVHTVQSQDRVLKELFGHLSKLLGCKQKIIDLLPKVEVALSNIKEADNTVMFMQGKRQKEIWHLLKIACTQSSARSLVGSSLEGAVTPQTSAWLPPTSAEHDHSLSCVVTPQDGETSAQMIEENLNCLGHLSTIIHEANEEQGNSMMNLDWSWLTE
Sequence of panel of human kinases (kinase named in endpoint) (Homo sapiens, UniProt Q8IWQ3) (Q8IWQ3 whole entry): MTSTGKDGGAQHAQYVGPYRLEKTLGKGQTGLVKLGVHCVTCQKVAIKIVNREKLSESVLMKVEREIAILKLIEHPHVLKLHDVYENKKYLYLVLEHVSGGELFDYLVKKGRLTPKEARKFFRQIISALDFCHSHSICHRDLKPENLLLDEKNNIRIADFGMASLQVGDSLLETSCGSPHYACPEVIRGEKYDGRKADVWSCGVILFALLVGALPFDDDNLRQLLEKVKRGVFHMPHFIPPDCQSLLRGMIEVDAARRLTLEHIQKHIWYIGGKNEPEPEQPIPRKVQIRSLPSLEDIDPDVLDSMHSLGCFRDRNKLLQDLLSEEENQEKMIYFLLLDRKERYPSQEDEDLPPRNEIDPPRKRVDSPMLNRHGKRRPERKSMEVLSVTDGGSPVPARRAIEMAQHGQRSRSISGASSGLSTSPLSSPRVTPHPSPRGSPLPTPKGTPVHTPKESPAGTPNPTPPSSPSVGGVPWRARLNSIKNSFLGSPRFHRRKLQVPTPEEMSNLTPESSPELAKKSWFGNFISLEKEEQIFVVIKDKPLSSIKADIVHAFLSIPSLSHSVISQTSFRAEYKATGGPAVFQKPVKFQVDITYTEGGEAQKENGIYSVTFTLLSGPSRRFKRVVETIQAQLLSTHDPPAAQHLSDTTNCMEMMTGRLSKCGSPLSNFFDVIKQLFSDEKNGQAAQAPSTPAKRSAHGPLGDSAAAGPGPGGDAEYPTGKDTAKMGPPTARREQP
Sequence of panel of human kinases (kinase named in endpoint) (Homo sapiens, UniProt Q9NY57) (Q9NY57 whole entry): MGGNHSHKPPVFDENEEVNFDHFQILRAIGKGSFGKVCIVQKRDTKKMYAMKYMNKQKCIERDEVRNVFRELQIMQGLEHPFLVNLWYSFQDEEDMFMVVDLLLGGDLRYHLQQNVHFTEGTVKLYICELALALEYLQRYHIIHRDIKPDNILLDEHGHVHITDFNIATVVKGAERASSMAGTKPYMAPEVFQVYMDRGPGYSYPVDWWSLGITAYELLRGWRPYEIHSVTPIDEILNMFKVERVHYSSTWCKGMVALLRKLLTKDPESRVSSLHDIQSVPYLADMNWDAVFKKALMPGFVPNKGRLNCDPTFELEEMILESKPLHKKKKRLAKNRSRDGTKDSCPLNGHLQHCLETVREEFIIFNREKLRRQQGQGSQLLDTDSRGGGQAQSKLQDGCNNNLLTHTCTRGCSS
Sequence of panel of human kinases (kinase named in endpoint) (Homo sapiens, UniProt Q9UHD2) (Q9UHD2 whole entry): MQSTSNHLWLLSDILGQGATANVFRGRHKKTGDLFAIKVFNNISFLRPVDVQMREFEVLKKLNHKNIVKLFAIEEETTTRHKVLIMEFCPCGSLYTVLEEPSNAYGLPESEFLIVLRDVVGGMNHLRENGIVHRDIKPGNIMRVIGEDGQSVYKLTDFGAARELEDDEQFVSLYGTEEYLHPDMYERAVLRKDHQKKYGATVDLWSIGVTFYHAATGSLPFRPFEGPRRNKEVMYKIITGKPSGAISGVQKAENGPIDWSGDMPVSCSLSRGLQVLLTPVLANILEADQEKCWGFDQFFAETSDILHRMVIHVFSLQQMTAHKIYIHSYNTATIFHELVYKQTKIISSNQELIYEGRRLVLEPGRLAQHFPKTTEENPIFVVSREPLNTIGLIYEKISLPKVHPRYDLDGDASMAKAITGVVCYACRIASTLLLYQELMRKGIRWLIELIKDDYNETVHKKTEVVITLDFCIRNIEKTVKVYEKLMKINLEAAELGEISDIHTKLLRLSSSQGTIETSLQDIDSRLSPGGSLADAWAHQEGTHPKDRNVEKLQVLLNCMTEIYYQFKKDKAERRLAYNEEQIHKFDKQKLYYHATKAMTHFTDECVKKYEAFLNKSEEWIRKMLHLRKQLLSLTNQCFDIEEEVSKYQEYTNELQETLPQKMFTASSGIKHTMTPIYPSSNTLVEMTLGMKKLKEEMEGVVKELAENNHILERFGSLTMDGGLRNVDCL
Sequence of panel of human kinases (kinase named in endpoint) (Homo sapiens, UniProt P19784) (P19784 whole entry): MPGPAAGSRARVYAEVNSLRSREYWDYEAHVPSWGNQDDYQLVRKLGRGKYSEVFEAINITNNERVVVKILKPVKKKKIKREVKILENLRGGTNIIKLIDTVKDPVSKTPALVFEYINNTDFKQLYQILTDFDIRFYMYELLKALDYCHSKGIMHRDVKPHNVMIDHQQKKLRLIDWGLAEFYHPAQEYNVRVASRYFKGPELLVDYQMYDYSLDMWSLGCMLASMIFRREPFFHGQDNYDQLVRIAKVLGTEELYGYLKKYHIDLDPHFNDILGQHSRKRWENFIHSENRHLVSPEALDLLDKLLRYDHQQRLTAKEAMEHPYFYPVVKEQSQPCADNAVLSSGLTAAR

## CC(C)C(=O)Nc1nc2cc(-c3ccc4c(c3)c(C(=O)NC(C)c3ccccc3)cn4C)ccn2n1 (stereo not shown) [RI-962]
[1]
  activity at 10 µM: 110%
[2]
  activity at 10 µM: 91%
[3]
  activity at 10 µM: 96%
[4]
  activity at 10 µM: 97%
[5]
  activity at 10 µM: 94%
[6]
  activity at 10 µM: 85%
[7]
  activity at 10 µM: 53%
[8]
  activity at 10 µM: 105%
[9]
  activity at 10 µM: 97%
[10]
  activity at 10 µM: 93%
[11]
  activity at 10 µM: 88%
[12]
  activity at 10 µM: 85%
[13]
  activity at 10 µM: 101%
[14]
  activity at 10 µM: 93%
[15]
  activity at 10 µM: 102%
[16]
  activity at 10 µM: 99%
[17]
  activity at 10 µM: 112%
[18]
  activity at 10 µM: 95%
[19]
  activity at 10 µM: 94%
[20]
  activity at 10 µM: 79%
[21]
  activity at 10 µM: 90%
[22]
  activity at 10 µM: 95%
[23]
  activity at 10 µM: 132%
[24]
  activity at 10 µM: 77%
[25]
  activity at 10 µM: 93%
